Test results as given in article PMC11697113, “The Hsc70 system maintains the synaptic SNARE protein SNAP-25 in an assembly-competent state and delays its aggregation [drawing 1]” (The Journal of Biological Chemistry, 2024).

Assays:
SNAP-25 = SNAP-25 aggregation kinetics by optical density; assay type: biochemical; settings: SNAP-25 (CS mutant) 50 μM alone, 37 °C, shaking 300 rpm, OD 360 nm, 20 mM phosphate buffer pH 7.4, 100 μM MgCl2, 100 mM KCl
Description: To test our hypothesis that Hsc70 inhibits SNAP-25 aggregation, we monitored the aggregation kinetics of recombinantly expressed SNAP-25 in the absence and presence of Hsc70 by following optical density at 360 nm (Fig. 2). […] This lag time was elongated to ∼65 h in the presence of Hsc70. In neurons, Hsc70 works in collaboration with its co-chaperone CSPα. […] (Fig. S2A). Apg2 is a member of the Hsp110 family, which is known to suppress protein aggregation ([36]). […] (Fig. S2B).
Figure 2 Hsc70 delays the aggregation of SNAP-25. Aggregation kinetics of SNAP-25 (50 μM) at 37 °C. Optical density of SNAP-25 was recorded at 360 nm in the absence (black) and in the presence of Hsc70 (5 μM, red), and Hsc70+CSPαJ (5 μM each, blue).
Aggregation of SNAP-25 at 50 μM was followed by measuring the A360 in a 96-well plate using a BioTek plate reader (BioTek), at 37 °C with shaking at 300 rpm, in the absence and presence of Hsc70 and CSPαJ at 5 μM each, and Apg2 at 0.5 μM. The aggregation buffer included 20 mM phosphate buffer pH 7.4, 100 μM MgCl2, and 100 mM KCl, and an ATP-experiment was carried out using regeneration system (5 mM 2-phosphoenolpyruvate, 0.05 mg/ml pyruvate kinase, and 5 mM ATP), as described previously ([51]).
Figure SI 2. Apg2 enhances the effect of Hsc70 on SNAP-25. (A) Aggregation kinetics of SNAP-25 (50 μM) at 37 °C. OD600 of SNAP-25 was recorded in the absence (black) and in the presence of Hsc70, Hsc70+CSPa-J (blue) and Hsc70+CSPa-J+Apg2 (turquoise). […]
concentrations are SNAP-25 (50 μM), Hsc70 (5 μM), CSPa-J (5 μM) and Apg2 (0.5 μM).
(B) Aggregation kinetics of SNAP-25 (50 μM) at 37 °C. OD600 of SNAP-25 was recorded in the absence (black) and in the presence of Apg2 (blue). […]

[1] = test system: SNARE complex with syntaxin and synaptobrevin; experiment: SDS-resistant SNARE complex formation (SDS-PAGE); assay type: biochemical; settings: without Hsc70, mixed with syntaxin and synaptobrevin, 1 M NaCl, 4 °C
Description: We took aliquots of SNAP-25 at different time points of the aggregation reaction (at 0 h, in lag phase and at 64 h in the log or saturation phase, Fig. 2A) and mixed them with the SNARE motifs of syntaxin and synaptobrevin to allow the formation of the SNARE complex.
Figure 6 Hsc70 facilitates incorporation of SNAP-25 into the SNARE complex in vitro. SDS-PAGE of SNAP-25 taken from the aggregation reactions (Fig. 2) at 0 h and 64 h after the initiation, without (left) and with Hsc70 (right), and mixed with syntaxin and synaptobrevin for the time indicated below each SDS-PAGE. SNAP-25 is expressed and purified from E. coli; a minor amount of the bacterial Hsp70 homolog DnaK (∼70 kDa) may copurify with SNAP-25, explaining the presence of higher molecular weight bands, with its proteolysis potentially occurring during ∼64-h SNAP-25 aggregation reactions. For synaptobrevin, we attribute the higher molecular weight bands to incomplete cleavage of GST-tagged synaptobrevin.
The SNARE motifs were mixed in an equimolar ratio in the following order: synaptobrevin-2 (29–93), syntaxin-1A (191–253), and SNAP-25 taken from the aggregation reaction, in the presence of 1 M NaCl. The assembly reaction was incubated at 4 °C overnight while rotating. The SNARE motifs were concentrated using a 30-kDa molecular weight cutoff Amicon centrifugation filters and run on 4 to 20% gradient SDS-PAGE.

synaptosomal-associated 25 kDa protein [SNAP-25]
lag phase of SNAP-25 aggregation (SNAP-25): ~38 h | SNARE complex formation by SNAP-25 taken at 0 h of aggregation [1]: forms SDS-resistant SNARE complexes | SNARE complex formation by SNAP-25 taken at 64 h of aggregation [1]: unable to form the SNARE complexes
